According to ChEMBL document CHEMBL1149881, “Syntheses of 4,6'-epoxymorphinan derivatives and their pharmacologies” (Bioorg Med Chem, 2008):
Activity calls are given as the source filed them. The rule behind the calls is not given here.

Experiments:
[1] = target: Delta-type opioid receptor (Mus musculus, UniProt P32300); test: Displacement of [3H]DPDPE from delta opioid receptor in ICR mouse whole brain
Mu-type opioid receptor = Mu-type opioid receptor (Mus musculus, UniProt P42866); test: Displacement of [3H]DAMGO from mu opioid receptor in ICR mouse whole brain
Chain of Mu-type opioid receptor (P42866 whole entry): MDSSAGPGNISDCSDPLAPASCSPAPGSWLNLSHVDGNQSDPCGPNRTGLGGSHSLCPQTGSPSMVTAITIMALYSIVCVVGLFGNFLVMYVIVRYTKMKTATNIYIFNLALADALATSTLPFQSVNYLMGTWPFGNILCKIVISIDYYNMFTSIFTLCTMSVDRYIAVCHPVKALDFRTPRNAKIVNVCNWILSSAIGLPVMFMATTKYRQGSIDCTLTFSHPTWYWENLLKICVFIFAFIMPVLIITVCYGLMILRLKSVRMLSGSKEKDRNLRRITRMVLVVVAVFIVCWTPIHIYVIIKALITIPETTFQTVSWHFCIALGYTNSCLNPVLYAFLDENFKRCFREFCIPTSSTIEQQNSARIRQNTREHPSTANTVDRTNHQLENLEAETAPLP

[2] = target: Kappa-type opioid receptor (Cavia porcellus, UniProt P41144); test: Displacement of [3H]U69593 from kappa opioid receptor in guinea pig cerebellum
Chain of Kappa-type opioid receptor (P41144 whole entry): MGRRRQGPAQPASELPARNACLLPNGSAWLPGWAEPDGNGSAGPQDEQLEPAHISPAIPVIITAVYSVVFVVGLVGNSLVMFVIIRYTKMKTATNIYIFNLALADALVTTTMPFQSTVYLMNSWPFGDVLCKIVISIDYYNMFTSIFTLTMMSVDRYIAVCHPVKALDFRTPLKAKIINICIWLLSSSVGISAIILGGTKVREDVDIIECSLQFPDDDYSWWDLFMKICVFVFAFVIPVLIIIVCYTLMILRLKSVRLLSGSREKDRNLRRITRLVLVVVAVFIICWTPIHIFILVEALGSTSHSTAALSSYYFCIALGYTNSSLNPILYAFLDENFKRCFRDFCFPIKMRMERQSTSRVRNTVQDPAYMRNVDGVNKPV

[3] = target: Mu-type opioid receptor (Mus musculus) (UniProt P42866); test: Inhibition of mu opioid receptor-mediated DAMGO induced activation of G-Protein in ICR mouse brain at 0.1 to 1 uM by [35S]GTPgammaS binding; assay type: functional
Chain of Mu-type opioid receptor (Mus musculus) (P42866 whole entry): as the sequence (P42866 whole entry) above

[4] = target: Delta-type opioid receptor (Mus musculus) (UniProt P32300); test: Inhibition of delta opioid receptor-mediated SNC80 induced activation of G-Protein in ICR mouse brain at 0.1 to 1 uM by [35S]GTPgammaS binding; assay type: functional, tissue-based
Chain of Delta-type opioid receptor (Mus musculus) (P32300 whole entry): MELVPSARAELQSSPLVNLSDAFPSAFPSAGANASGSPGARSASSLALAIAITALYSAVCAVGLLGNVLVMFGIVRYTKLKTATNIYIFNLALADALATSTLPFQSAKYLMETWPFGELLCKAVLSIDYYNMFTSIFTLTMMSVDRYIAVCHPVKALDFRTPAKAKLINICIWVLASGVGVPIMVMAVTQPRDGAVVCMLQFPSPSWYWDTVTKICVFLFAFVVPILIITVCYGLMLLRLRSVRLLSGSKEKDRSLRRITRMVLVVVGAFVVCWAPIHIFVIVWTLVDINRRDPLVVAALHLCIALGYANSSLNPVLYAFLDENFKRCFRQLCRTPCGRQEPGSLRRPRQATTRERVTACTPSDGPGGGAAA

[5] = target: Kappa-type opioid receptor (Cavia porcellus) (UniProt P41144); test: Inhibition of kappa opioid receptor-mediated U50488 induced activation of G-Protein in guinea pig cerebellum at 0.1 to 1 uM by [35S]GTPgammaS binding; assay type: functional, tissue-based
Chain of Kappa-type opioid receptor (Cavia porcellus) (P41144 whole entry): as the sequence (P41144 whole entry) above

[6] = target: Mu-type opioid receptor (Mus musculus) (UniProt P42866); test: Activation of mu opioid receptor-mediated G-protein activation in ICR mouse whole brain at 10 uM by [35S]GTPgammaS binding in presence of Beta-FNA; assay type: functional
Mus musculus [7] = test: Antinociceptive activity against sc dosed ICR mouse by hot plate method; assay type: functional, organism-based
Mus musculus [8] = test: Antinociceptive activity against sc dosed ICR mouse by tail flick method; assay type: functional, organism-based

Chain of Delta-type opioid receptor (P32300 whole entry): as the sequence (P32300 whole entry) above

Compound	IC50 [1] [µM]	IC50 (Mu-type opioid receptor) [µM]	IC50 [2] [µM]	Activity [3]	Activity [4]	Activity [5]	Activity [6]	Activity (Mus musculus [7])	Activity (Mus musculus [8])
Oc1ccc2c3c1OC[C@H]1CC[C@]4(O)[C@H](C2)N(CC2CC2)CC[C@@]34C1	0.0573	0.00121	0.00098	Active	Active	Active			
COc1ccc2c3c1OC[C@H]1CC[C@]4(O)[C@H](C2)N(C)CC[C@@]34C1	< 0.5	0.183	< 0.5	Active			inactive	Dose-dependent effect	Dose-dependent effect
